According to ChEMBL document CHEMBL3611969, “The effect of complexation of 3-formylrifamycin SV macrocyclic ether derivatives with metal cations and small nitrogen-containing organic molecules on antibacterial activity against S. aureus and S. epidermidis” (Bioorg Med Chem Lett, 2015):
Converted amounts (≈) assume the structure as drawn. Values belong to the compound of their own block, whether it stands above or below them.

Key:
[1] = test system: Staphylococcus epidermidis; assay: Antibacterial activity against Staphylococcus epidermidis ATCC 49134 after 18 hrs by serial microdilution method; assay type: functional; conditions: ATCC 49134, 18 h
[2] = test system: Staphylococcus epidermidis; assay: Antibacterial activity against Staphylococcus epidermidis ATCC 12228 after 18 hrs by serial microdilution method; assay type: functional; conditions: ATCC 12228, 18 h
[3] = test system: Staphylococcus aureus; assay: Antibacterial activity against Staphylococcus aureus ATCC 4163 after 18 hrs by serial microdilution method; assay type: functional; conditions: ATCC 4163, 18 h
[4] = test system: Staphylococcus aureus; assay: Antibacterial activity against Staphylococcus aureus ATCC 6538 after 18 hrs by serial microdilution method; assay type: functional; conditions: ATCC 6538, 18 h
[5] = test system: Staphylococcus aureus; assay: Antibacterial activity against Staphylococcus aureus ATCC 25923 after 18 hrs by serial microdilution method; assay type: functional; conditions: ATCC 25923, 18 h
[6] = test system: Staphylococcus epidermidis; assay: Antibacterial activity against Staphylococcus epidermidis ATCC 12228 after 18 hrs by serial microdilution method in presence of isoniazid; assay type: functional; conditions: ATCC 12228, 18 h
[7] = test system: Staphylococcus aureus; assay: Antibacterial activity against Staphylococcus aureus ATCC 6538 after 18 hrs by serial microdilution method in presence of isoniazid; assay type: functional; conditions: ATCC 6538, 18 h
[8] = test system: Staphylococcus epidermidis; assay: Antibacterial activity against Staphylococcus epidermidis ATCC 12228 after 18 hrs by serial microdilution method in presence of 4-fluorobenzylamine; assay type: functional; conditions: ATCC 12228, 18 h
[9] = test system: Staphylococcus epidermidis; assay: Antibacterial activity against Staphylococcus epidermidis ATCC 12228 after 18 hrs by serial microdilution method in presence of 2-chlorobenzylamine; assay type: functional; conditions: ATCC 12228, 18 h
[10] = test system: Staphylococcus aureus; assay: Antibacterial activity against Staphylococcus aureus ATCC 4163 after 18 hrs by serial microdilution method in presence of 2-chlorobenzylamine; assay type: functional; conditions: ATCC 4163, 18 h
[11] = test system: Staphylococcus aureus; assay: Antibacterial activity against Staphylococcus aureus ATCC 25923 after 18 hrs by serial microdilution method in presence of histamine; assay type: functional; conditions: ATCC 25923, 18 h
[12] = test system: Staphylococcus aureus; assay: Antibacterial activity against Staphylococcus aureus ATCC 6538 after 18 hrs by serial microdilution method in presence of 4-fluorobenzylamine; assay type: functional; conditions: ATCC 6538, 18 h
[13] = test system: Staphylococcus aureus; assay: Antibacterial activity against Staphylococcus aureus ATCC 25923 after 18 hrs by serial microdilution method in presence of isoniazid; assay type: functional; conditions: ATCC 25923, 18 h
[14] = test system: Staphylococcus epidermidis; assay: Antibacterial activity against Staphylococcus epidermidis ATCC 12228 after 18 hrs by serial microdilution method in presence of histamine; assay type: functional; conditions: ATCC 12228, 18 h
[15] = test system: Staphylococcus aureus; assay: Antibacterial activity against Staphylococcus aureus ATCC 4163 after 18 hrs by serial microdilution method in presence of isoniazid; assay type: functional; conditions: ATCC 4163, 18 h
[16] = test system: Staphylococcus aureus; assay: Antibacterial activity against Staphylococcus aureus ATCC 25923 after 18 hrs by serial microdilution method in presence of 2-chlorobenzylamine; assay type: functional; conditions: ATCC 25923, 18 h
[17] = Octanol-water partition coefficient, log P of the compound by UV-vis method; assay type: physicochemical
[18] = test system: Staphylococcus aureus; assay: Antibacterial activity against Staphylococcus aureus ATCC 4163 after 18 hrs by serial microdilution method in presence of 4-fluorobenzylamine; assay type: functional; conditions: ATCC 4163, 18 h
[19] = test system: Staphylococcus epidermidis; assay: Antibacterial activity against Staphylococcus epidermidis ATCC 49134 after 18 hrs by serial microdilution method in presence of 2-chlorobenzylamine; assay type: functional; conditions: ATCC 49134, 18 h
[20] = test system: Staphylococcus aureus; assay: Antibacterial activity against Staphylococcus aureus ATCC 6538 after 18 hrs by serial microdilution method in presence of 2-chlorobenzylamine; assay type: functional; conditions: ATCC 6538, 18 h
[21] = test system: Staphylococcus epidermidis; assay: Antibacterial activity against Staphylococcus epidermidis ATCC 49134 after 18 hrs by serial microdilution method in presence of isoniazid; assay type: functional; conditions: ATCC 49134, 18 h
[22] = test system: Staphylococcus epidermidis; assay: Antibacterial activity against Staphylococcus epidermidis ATCC 49134 after 18 hrs by serial microdilution method in presence of histamine; assay type: functional; conditions: ATCC 49134, 18 h
[23] = test system: Staphylococcus aureus; assay: Antibacterial activity against Staphylococcus aureus ATCC 6538 after 18 hrs by serial microdilution method in presence of histamine; assay type: functional; conditions: ATCC 6538, 18 h
[24] = test system: Staphylococcus epidermidis; assay: Antibacterial activity against Staphylococcus epidermidis ATCC 49134 after 18 hrs by serial microdilution method in presence of 4-fluorobenzylamine; assay type: functional; conditions: ATCC 49134, 18 h
[25] = test system: Staphylococcus aureus; assay: Antibacterial activity against Staphylococcus aureus ATCC 4163 after 18 hrs by serial microdilution method in presence of histamine; assay type: functional; conditions: ATCC 4163, 18 h
[26] = test system: Staphylococcus aureus; assay: Antibacterial activity against Staphylococcus aureus ATCC 25923 after 18 hrs by serial microdilution method in presence of 4-fluorobenzylamine; assay type: functional; conditions: ATCC 25923, 18 h
[27] = Solubility of the compound in water at pH 7; assay type: physicochemical
[28] = test system: Staphylococcus epidermidis; assay: Antibacterial activity against Staphylococcus epidermidis ATCC 12228 after 18 hrs by serial microdilution method in presence of Li+; assay type: functional; conditions: ATCC 12228, 18 h
[29] = Octanol-water partition coefficient, log P of the compound by UV-vis method in presence of Li+; assay type: physicochemical
[30] = test system: Staphylococcus epidermidis; assay: Antibacterial activity against Staphylococcus epidermidis ATCC 12228 after 18 hrs by serial microdilution method in presence of Na+; assay type: functional; conditions: ATCC 12228, 18 h
[31] = Solubility of the compound in water at pH 7 in presence of Li+; assay type: physicochemical
[32] = test system: Staphylococcus epidermidis; assay: Antibacterial activity against Staphylococcus epidermidis ATCC 49134 after 18 hrs by serial microdilution method in presence of Na+; assay type: functional; conditions: ATCC 49134, 18 h
[33] = test system: Staphylococcus aureus; assay: Antibacterial activity against Staphylococcus aureus ATCC 6538 after 18 hrs by serial microdilution method in presence of Li+; assay type: functional; conditions: ATCC 6538, 18 h
[34] = test system: Staphylococcus aureus; assay: Antibacterial activity against Staphylococcus aureus ATCC 4163 after 18 hrs by serial microdilution method in presence of Li+; assay type: functional; conditions: ATCC 4163, 18 h
[35] = test system: Staphylococcus aureus; assay: Antibacterial activity against Staphylococcus aureus ATCC 6538 after 18 hrs by serial microdilution method in presence of Na+; assay type: functional; conditions: ATCC 6538, 18 h
[36] = Octanol-water partition coefficient, log P of the compound by UV-vis method in presence of Na+; assay type: physicochemical
[37] = Solubility of the compound in water at pH 7 in presence of Na+; assay type: physicochemical
[38] = test system: Staphylococcus aureus; assay: Antibacterial activity against Staphylococcus aureus ATCC 25923 after 18 hrs by serial microdilution method in presence of Li+; assay type: functional; conditions: ATCC 25923, 18 h
[39] = test system: Staphylococcus epidermidis; assay: Antibacterial activity against Staphylococcus epidermidis ATCC 49134 after 18 hrs by serial microdilution method in presence of Li+; assay type: functional; conditions: ATCC 49134, 18 h
[40] = test system: Staphylococcus aureus; assay: Antibacterial activity against Staphylococcus aureus ATCC 25923 after 18 hrs by serial microdilution method in presence of Na+; assay type: functional; conditions: ATCC 25923, 18 h
[41] = test system: Staphylococcus aureus; assay: Antibacterial activity against Staphylococcus aureus ATCC 4163 after 18 hrs by serial microdilution method in presence of Na+; assay type: functional; conditions: ATCC 4163, 18 h

MIC [1]: > 4 µg/mL | MIC [2]: > 4 µg/mL | MIC [3]: > 4 µg/mL | MIC [4]: > 4 µg/mL | MIC [5]: > 4 µg/mL
Compound: NCc1ccccc1Cl

MIC [6]: 0.25 µg/mL | MIC [7]: 1 µg/mL | MIC [8]: 0.25 µg/mL | MIC [9]: 0.25 µg/mL | MIC [10]: 0.5 µg/mL | MIC [11]: 0.125 µg/mL | MIC [12]: 0.5 µg/mL | MIC [13]: 1 µg/mL | MIC [14]: 1.25 µg/mL | MIC [15]: 1 µg/mL | MIC [16]: 0.5 µg/mL | MIC [1]: 0.5 µg/mL (≈ 0.503 µM) | logP [17]: 0.2 | MIC [18]: 0.5 µg/mL | MIC [2]: 0.5 µg/mL (≈ 0.503 µM) | MIC [19]: 0.25 µg/mL | MIC [3]: 2 µg/mL (≈ 2.01 µM) | MIC [20]: 0.5 µg/mL | MIC [4]: 2 µg/mL (≈ 2.01 µM) | MIC [21]: 0.25 µg/mL | MIC [22]: 0.125 µg/mL | MIC [23]: 0.125 µg/mL | MIC [24]: 0.25 µg/mL | MIC [5]: 2 µg/mL (≈ 2.01 µM) | MIC [25]: 0.125 µg/mL | MIC [26]: 0.5 µg/mL
Compound: CO[C@H]1/C=C/O[C@@]2(C)Oc3c(C)c(O)c4c(O)c(c(CNc5ccc6c(c5)OCCOCCOCCOCCO6)c(O)c4c3C2=O)NC(=O)/C(C)=C\C=C\[C@H](C)[C@H](O)[C@@H](C)[C@@H](O)[C@@H](C)[C@H](OC(C)=O)[C@@H]1C

MIC [1]: 0.25 µg/mL (≈ 0.303 µM) | logP [17]: 2.37 | solubility [27]: 250 µg/mL (≈ 303 µM) | MIC [2]: 0.25 µg/mL (≈ 0.303 µM) | MIC [3]: 0.5 µg/mL (≈ 0.606 µM) | MIC [4]: 0.5 µg/mL (≈ 0.606 µM) | MIC [5]: 0.5 µg/mL (≈ 0.606 µM)
Compound: CO[C@H]1/C=C/O[C@@]2(C)Oc3c(C)c(O)c4c(O)c(c(CNCC5CCOCC5)c(O)c4c3C2=O)NC(=O)/C(C)=C\C=C\[C@H](C)[C@H](O)[C@@H](C)[C@@H](O)[C@@H](C)[C@H](OC(C)=O)[C@@H]1C

MIC [28]: 1 µg/mL | logP [29]: 1.09 | MIC [30]: 1 µg/mL | MIC [1]: 1 µg/mL (≈ 0.997 µM) | solubility [31]: 670 µg/mL | logP [17]: 1.76 | MIC [32]: 1 µg/mL | MIC [33]: 1 µg/mL | MIC [34]: 1 µg/mL | MIC [35]: 2 µg/mL | solubility [27]: 1000 µg/mL (≈ 997 µM) | logP [36]: 1.13 | MIC [2]: 1 µg/mL (≈ 0.997 µM) | MIC [3]: 1 µg/mL (≈ 0.997 µM) | solubility [37]: 600 µg/mL | MIC [4]: 1 µg/mL (≈ 0.997 µM) | MIC [38]: 2 µg/mL | MIC [39]: 1 µg/mL | MIC [40]: 2 µg/mL | MIC [41]: 2 µg/mL | MIC [5]: 2 µg/mL (≈ 1.99 µM)
Compound: CO[C@H]1/C=C/O[C@@]2(C)Oc3c(C)c(O)c4c(O)c(c(CNCC5COCCOCCOCCOCCOCCO5)c(O)c4c3C2=O)NC(=O)/C(C)=C\C=C\[C@H](C)[C@H](O)[C@@H](C)[C@@H](O)[C@@H](C)[C@H](OC(C)=O)[C@@H]1C (some centres undefined)
